# Measurements published in patent US11446298B2, “Pyrimidine derivatives” (Idorsia Pharmaceuticals Ltd, priority 2017, dated 2022).
# Columns and labels:
# [1] = target: T1, EP2 (Homo sapiens, UniProt P43116); experiment: hEP2 cAMP Assay (SF295 glioblastoma cells, HTRF cAMP, PGE2 75 nM); assay type: cell-based; settings: antagonistic activity, PGE2 75 nM (EC80)
# T1 construct: SF295 glioblastoma cells express high endogenous EP2 and no EP4; host or cells: SF295 glioblastoma cells
# Experimental: (§1) The antagonistic activities of the compounds of formula (I) on the EP2 and EP4 receptors are also determined in accordance with the following experimental method.
# (§2) Human tumor cell lines expressing endogenously either EP4 or EP2 are used and cAMP accumulation in cells upon PGE2 stimulation is monitored. SF295 glioblastoma cells express high endogenous EP2 and no EP4, whereas BT549 breast cancer cells, express high endogenous EP4 levels and very low EP2 levels.
# (§3) As a detection method for cAMP the HTRF (homogeneous time resolved fluorescence) Cisbio kit (HTRF cAMP dynamic 2 kit 20′000 tests Cisbio Cat. #62AM4PEC) was used, which is based on a competitive immunoassay using a Cryptate-labeled anti-cAMP antibody and d2-labeled cAMP. Native cAMP produced by cells or unlabeled cAMP (for the standard curve) compete with exogenously added d2-labeled cAMP (acceptor) for binding to monoclonal anti-cAMP-Eu3+Cryptate (donor). A FRET signal (Fluorescence Resonance Energy Transfer) is obtained only if the labeled anti-cAMP antibody binds the d2 labelled cAMP, thus the specific signal (i.e. energy transfer) is inversely proportional to the concentration of cAMP in the standard or sample.
# (§4) The SF295 cells (NCI/No. 0503170) are detached from culture dishes with a cell dissociation buffer (Invitrogen, 13151-014), and collected in growing medium (GM: RPM11640 (Invitrogen 21875)/10% FCS, 1% Penicilin/streptomycin). Cells are counted washed and resuspended in assay buffer (AB; HBSS, 20 mM HEPES, 0.2% BSA; 2 mM IBMX). 4′000 cells in 5 μL of AB are seeded per well of a small volume 384 well plate (black with flat bottom, Greiner 784076).
# (§5) Stock solutions of test compounds are made at a concentration of 10 mM in DMSO, and serially diluted in DMSO to concentrations required for inhibition dose response curves (tested concentration range 30 μM-0.4 nM; 30 μM-0.015 nM or 1 μM-0.01 nM).
# PGE2 (Cayman 14010, stock solution: 75 μM in DMSO) is used as agonist at 75 nM final concentration, corresponding to EC80.
# (§6) 2.5 μL of diluted compounds are transferred into the assay plate. Plate is pre-incubated 45 minutes at room temperature. Subsequently, 2.5 μL of PGE2 (final conc. 75 nM) are transferred into the assay plate. Plate is incubated 30 minutes at room temperature. Five μL of each donor (anti-cAMP cryptate) and acceptor (cAMP-d2) are added and the plate is incubated another hour at room temperature in the dark and then read using a BMG LABTECH PHERAstar reader (Excitation: 337 nm, Emission: 620 and 665 nm).
# (§7) The obtained Delta F (fluorescence) values (665 nm/620 nM) are converted into % cAMP values using the measurements of the cAMP calibrator provided in the kit. For each compound concentration the percentage of cAMP compared to DMSO control value as average ±STDEV (each concentration is measured in duplicate) is calculated.
# (§8) IC50 values and curves are generated with XLfit software (IDBS) using Dose-Response One Site model 203. When compounds were measured multiple times, mean values are given.
# [2] = target: T2, EP4 (Homo sapiens, UniProt P35408); experiment: hEP4 cAMP Assay (BT549 breast cancer cells, HTRF cAMP, PGE2 6 nM); assay type: cell-based; settings: antagonistic activity, PGE2 6 nM (EC80)
# T2 construct: BT549 breast cancer cells, express high endogenous EP4 levels and very low EP2 levels; host or cells: BT549 breast cancer cells
# Experimental: as §1, §2, §3
# as §4, with “BT549” for “SF295”, “0507282)” for “0503170)”, “RPMI1640” for “RPM11640”
# as §5
# PGE2 (Cayman 14010, stock solution: 6 uM in DMSO) is used as agonist at 6 nM final concentration, corresponding to EC80.
# as §6, with “6” for “75”, “5” for “Five”
# as §7, §8
# T2 sequence (P35408 whole entry): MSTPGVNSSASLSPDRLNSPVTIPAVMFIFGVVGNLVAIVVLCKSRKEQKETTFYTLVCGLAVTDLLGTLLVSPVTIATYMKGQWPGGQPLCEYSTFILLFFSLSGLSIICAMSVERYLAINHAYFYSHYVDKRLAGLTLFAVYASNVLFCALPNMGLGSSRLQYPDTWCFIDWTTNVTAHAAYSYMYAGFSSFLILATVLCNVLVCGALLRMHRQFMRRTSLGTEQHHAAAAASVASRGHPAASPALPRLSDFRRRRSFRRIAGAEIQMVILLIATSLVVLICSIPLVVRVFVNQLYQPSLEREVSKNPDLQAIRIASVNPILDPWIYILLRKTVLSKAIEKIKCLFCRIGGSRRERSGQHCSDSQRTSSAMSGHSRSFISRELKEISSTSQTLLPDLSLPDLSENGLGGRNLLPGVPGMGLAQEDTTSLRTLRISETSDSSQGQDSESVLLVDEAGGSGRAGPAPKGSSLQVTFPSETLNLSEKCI
# T1 sequence (P43116 whole entry): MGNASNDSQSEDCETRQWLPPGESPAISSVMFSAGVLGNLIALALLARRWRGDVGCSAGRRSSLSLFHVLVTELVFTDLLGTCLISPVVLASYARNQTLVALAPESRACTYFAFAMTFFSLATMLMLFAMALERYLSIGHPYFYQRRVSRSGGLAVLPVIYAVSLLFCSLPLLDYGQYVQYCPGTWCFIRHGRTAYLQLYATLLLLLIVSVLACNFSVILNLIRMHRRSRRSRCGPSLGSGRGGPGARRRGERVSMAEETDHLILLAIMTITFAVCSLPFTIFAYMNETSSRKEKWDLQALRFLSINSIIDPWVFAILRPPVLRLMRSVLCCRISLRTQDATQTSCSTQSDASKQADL
Compound,IC50 [1] [nM],IC50 [2] [nM]
"CCOc1cc(-c2cc(NCCc3c(C)c(C)cc4ccccc34)ncn2)ccc1C(=O)O [Example 11, 4-{6-[2-(2,3-Dimethyl-naphthalen-1-yl)-ethylamino]-pyrimidin-4-yl}-2-ethoxy-benzoic acid]",261,885
"COc1ccc2c(c1CCNc1cc(-c3ccc(C(=O)O)c(OC4CCC4)c3)ncn1)OCO2 [Example 43, 2-Cyclobutoxy-4-{6-[2-(5-methoxy-benzo[1,3]dioxol-4-yl)-ethylamino]-pyrimidin-4-yl}-benzoic acid]",252,797
"CCOc1cc(-c2cc(NCCc3ccc(OC)c4ccccc34)ncn2)ccc1OCC(=O)O [Example 60, (2-Ethoxy-4-{6-[2-(4-methoxy-naphthalen-1-yl)-ethylamino]-pyrimidin-4-yl}-phenoxy)-acetic acid]",845,384
"CCOc1cc(-c2cc(NCCc3cccc4ccn(C)c34)ncn2)ccc1OCC(=O)O [Example 50, (2-Ethoxy-4-{6-[2-(1-methyl-1H-indol-7-yl)-ethylamino]-pyrimidin-4-yl}-phenoxy)-acetic acid]",399,631
CCOc1cc(-c2cc(NCCc3cccc4ccoc34)ncn2)ccc1OCC(=O)O [Example 51],473,853
"CCOc1cc(-c2cc(NCCc3cccc4c3OCO4)ncn2)sc1C(=O)O [Example 36, 5-[6-(2-Benzo[1,3]dioxol-4-yl-ethylamino)-pyrimidin-4-yl]-3-ethoxy-thiophene-2-carboxylic acid]",262,368
"COc1ccc2c(OC)cccc2c1CCNc1cc(-c2ccc(C(=O)O)c(OC3CCC3)c2)ncn1 [Example 52, 2-Cyclobutoxy-4-{6-[2-(2,5-dimethoxy-naphthalen-1-yl)-ethylamino]-pyrimidin-4-yl}-benzoic acid]",779,758
"COc1cc(CCNc2cc(-c3ccc(C(=O)O)c(OC4CCC4)c3)ncn2)c2ccccc2c1 [Example 41, 2-Cyclobutoxy-4-{6-[2-(3-methoxy-naphthalen-1-yl)-ethylamino]-pyrimidin-4-yl}-benzoic acid]",297,711
"CCOc1cc(-c2cc(NCCc3cccc4cc(C)n(C)c34)ncn2)ccc1OCC(=O)O [Example 57, (4-{6-[2-(1,2-Dimethyl-1H-indol-7-yl)-ethylamino]-pyrimidin-4-yl}-2-ethoxy-phenoxy)-acetic acid]",508,962
"CCOc1cc(-c2cc(NCCc3c(OC)ccc4c(OC)cccc34)ncn2)ccc1C(=O)O [Example 54, 4-{6-[2-(2,5-Dimethoxy-naphthalen-1-yl)-ethylamino]-pyrimidin-4-yl}-2-ethoxy-benzoic acid]",878,420
"CCCOc1ccc2ccccc2c1CCNc1cc(-c2cc(OCC)c(C(=O)O)s2)ncn1 [Example 38, 3-Ethoxy-5-{6-[2-(2-propoxy-naphthalen-1-yl)-ethylamino]-pyrimidin-4-yl}-thiophene-2-carboxylic acid]",22,48
"CCOc1cc(-c2cc(NCCc3c(OC)ccc4c(OC)cccc34)ncn2)ccc1OCC(=O)O [Example 55, (4-{6-[2-(2,5-Dimethoxy-naphthalen-1-yl)-ethylamino]-pyrimidin-4-yl}-2-ethoxy-phenoxy)-acetic acid]",829,300
"CCOc1cc(-c2cc(NCCc3c(Br)ccc4ccccc34)ncn2)sc1C(=O)O [Example 10, 5-{6-[2-(2-Bromo-naphthalen-1-yl)-ethylamino]-pyrimidin-4-yl}-3-ethoxy-thiophene-2-carboxylic acid]",5,22
"COc1ccc(CCNc2cc(-c3ccc(C(=O)O)c(OC4CCC4)c3)ncn2)c2ccccc12 [Example 58, 2-Cyclobutoxy-4-{6-[2-(4-methoxy-naphthalen-1-yl)-ethylamino]-pyrimidin-4-yl}-benzoic acid]",825,401
5-{6-[2-(6-Fluoro-2-methoxy-quinolin-8-yl)-ethylamino]-pyrimidin-4-yl}-3-trifluoromethyl-thiophene-2-carboxylic acid [Example 153],438,283

# The remaining lines, values ahead:
IC50 [1] [nM],IC50 [2] [nM],Compound
878,597,"CCOc1cc(-c2cc(NCCc3cccc4sccc34)ncn2)ccc1CC(=O)O [Example 110, {4-[6-(2-Benzo[b]thiophen-4-yl-ethylamino)-pyrimidin-4-yl]-2-ethoxy-phenyl}-acetic acid]"
287,544,"Cc1ccc2c(cnn2C)c1CCNc1cc(-c2ccc(-c3c(O)c(=O)c3=O)cc2)ncn1 [Example 92, 3-(4-{6-[2-(1,5-Dimethyl-1H-indazol-4-yl)-ethylamino]-pyrimidin-4-yl}-phenyl)-4-hydroxy-cyclobut-3-ene-1,2-dione]"
524,321,"COc1ccc2cccc(CCNc3cc(-c4cc(C(F)(F)F)c(C(=O)O)s4)ncn3)c2n1 [Example 150, 5-{6-[2-(2-Methoxy-quinolin-8-yl)-ethylamino]-pyrimidin-4-yl}-3-trifluoromethyl-thiophene-2-carboxylic Acid]"
335,356,CCOc1cc(-c2cc(NCCc3cccc4ccsc34)ncn2)ccc1OCC(=O)O [Example 104]
418,403,CCOc1cc(-c2cc(NCCc3cccc4ccccc34)ncn2)ccc1OCC(=O)O [Example 77]
258,867,"CCOc1cc(-c2cc(NCCc3cccc4sccc34)ncn2)ccc1C(=O)O [Example 106, 4-[6-(2-Benzo[b]thiophen-4-yl-ethylamino)-pyrimidin-4-yl]-2-ethoxy-benzoic acid]"
976,889,"CCOc1cc(-c2cc(NCCc3cccc4cc(C)oc34)ncn2)ccc1OCC(=O)O [Example 75, (2-Ethoxy-4-{6-[2-(2-methyl-benzofuran-7-yl)-ethylamino]-pyrimidin-4-yl}-phenoxy)-acetic acid]"
338,495,"CCOc1cc(-c2cc(NCCc3c(C)ccc4c3cnn4C)ncn2)ccc1OCC(=O)O [Example 80, (4-{6-[2-(1,5-Dimethyl-1H-indazol-4-yl)-ethylamino]-pyrimidin-4-yl}-2-ethoxy-phenoxy)-acetic acid]"
354,335,"CCNC(=O)Nc1ccc(-c2cc(NCCc3c(OC)ccc4ncccc34)ncn2)cc1OC [Example 98, 1-Ethyl-3-(2-methoxy-4-{6-[2-(6-methoxy-quinolin-5-yl)-ethylamino]-pyrimidin-4-yl}-phenyl)-urea]"
726,452,CCOc1cc(-c2cc(NCCc3cccc4sccc34)ncn2)ccc1OCC(=O)O [Example 109]
7,51,"COc1ccc2ccccc2c1CCNc1cc(-c2cc(OCCO)c(C(=O)O)s2)ncn1 [Example 156, 3-(2-Hydroxy-ethoxy)-5-{6-[2-(2-methoxy-naphthalen-1-yl)-ethylamino]-pyrimidin-4-yl}-thiophene-2-carboxylic acid]"
